Several values for one entry are separate records, joined by “and”; a condition that tells them apart may be missing. Equal entries are not always repeated. Inconclusive results and toxic doses are left out. Rule as the data show it: active = T/C of 150% or more; inactive = T/C below 125%.
Test system: L1210 leukemia ip in BDF1 mice, survival T/C
Experiment: NCI In Vivo Anticancer Drug Screen. Data for tumor model L1210 Leukemia (intraperitoneal) in B6D2F1 (BDF1) mice
Conditions: endpoint: mean survival time, higher = longer survival
How it was run: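 Tumor cells were implanted, animals were treated, and survival was followed. The result divides the treated measurement by the vehicle-control measurement.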

[1] = dose: 100.0 mg/kg/injection, schedule: Q01DX001 (ip), vehicle: saline
[2] = dose: 25.0 mg/kg/injection, schedule: Q04DX002 (ip), vehicle: saline
[3] = dose: 50.0 mg/kg/injection, schedule: Q04DX002 (ip), vehicle: saline
[4] = dose: 100.0 mg/kg/injection, schedule: Q04DX002 (ip), vehicle: saline
[5] = dose: 100.0 mg/kg/injection, schedule: Q01DX009 (ip), vehicle: Klucel (hydroxypropylcellulose) (HPC)
[6] = dose: 200.0 mg/kg/injection, schedule: Q01DX009 (ip), vehicle: Klucel (hydroxypropylcellulose) (HPC)
[7] = dose: 400.0 mg/kg/injection, schedule: Q01DX009 (ip), vehicle: Klucel (hydroxypropylcellulose) (HPC)
[8] = dose: 100.0 mg/kg/injection, schedule: Q04DX003 (ip), vehicle: saline with Tween-80
[9] = dose: 200.0 mg/kg/injection, schedule: Q04DX003 (ip), vehicle: saline with Tween-80
[10] = dose: 400.0 mg/kg/injection, schedule: Q04DX003 (ip), vehicle: saline with Tween-80
[11] = dose: 75.0 mg/kg/injection, schedule: Q01DX001 (ip), vehicle: saline
[12] = dose: 100.0 mg/kg/injection, schedule: Q01DX001 (ip), vehicle: carboxymethylcellulose (CMC)
[13] = dose: 200.0 mg/kg/injection, schedule: Q01DX001 (ip), vehicle: carboxymethylcellulose (CMC)
[14] = dose: 400.0 mg/kg/injection, schedule: Q01DX001 (ip), vehicle: carboxymethylcellulose (CMC)
[15] = dose: 100.0 mg/kg/injection, schedule: Q04DX003 (ip), vehicle: Klucel (hydroxypropylcellulose) (HPC)
[16] = dose: 200.0 mg/kg/injection, schedule: Q04DX003 (ip), vehicle: Klucel (hydroxypropylcellulose) (HPC)
[17] = dose: 100.0 mg/kg/injection, schedule: Q01DX009 (ip), vehicle: saline with Tween-80
[18] = dose: 200.0 mg/kg/injection, schedule: Q01DX009 (ip), vehicle: saline with Tween-80
[19] = dose: 400.0 mg/kg/injection, schedule: Q01DX009 (ip), vehicle: saline with Tween-80
[20] = dose: 100.0 mg/kg/injection, schedule: Q01DX001 (ip), vehicle: saline with Tween-80
[21] = dose: 200.0 mg/kg/injection, schedule: Q01DX001 (ip), vehicle: saline with Tween-80
[22] = dose: 400.0 mg/kg/injection, schedule: Q01DX001 (ip), vehicle: saline with Tween-80
[23] = dose: 100.0 mg/kg/injection, schedule: Q04DX002 (ip), vehicle: Klucel (hydroxypropylcellulose) (HPC)
[24] = dose: 200.0 mg/kg/injection, schedule: Q04DX002 (ip), vehicle: Klucel (hydroxypropylcellulose) (HPC)
[25] = dose: 400.0 mg/kg/injection, schedule: Q04DX002 (ip), vehicle: Klucel (hydroxypropylcellulose) (HPC)

Measured: T/C

COc1ccc(C(=S)N2CCN(c3ccc(C)cc3)CC2)cc1
inactive: [1] 98 % of control | dose: 200.0 mg/kg/injection, schedule: Q01DX001 (ip), vehicle: saline 95 % of control | dose: 400.0 mg/kg/injection, schedule: Q01DX001 (ip), vehicle: saline 95 % of control

CC1(C)N=C(SCC(=O)c2ccccc2)NC1(C)C
inactive: [2] 101 % of control | [3] 101 % of control | [4] 101 % of control

COc1ccc(Cl)cc1NS(=O)(=O)c1ccc(Cl)cc1
inactive: [5] 97 % of control | [6] 102 % of control | [7] 92 % of control

O=c1[nH]c2cc3[nH]c(=O)c(=O)c3cc2c1=O
inactive: [5] 102 % of control | [6] 100 % of control | [7] 100 % of control

CCC[CH2][Sn]1([CH2]CCC)[O]OC(c2ccc(C(=O)OCC)cc2)[O]1 (stereo unspecified)
inactive: dose: 6.25 mg/kg/injection, schedule: Q04DX002 (ip), vehicle: other 102 % of control

Oc1ccc(Br)cc1C=NC1CCCCC1
inactive: dose: 100.0 mg/kg/injection, schedule: Q04DX002 (ip), vehicle: other 90 % of control | dose: 200.0 mg/kg/injection, schedule: Q04DX002 (ip), vehicle: other 96 % of control | dose: 400.0 mg/kg/injection, schedule: Q04DX002 (ip), vehicle: other 90 % of control

OCCOc1cccc(OCCO)c1
inactive: [8] 103 % of control | [9] 104 % of control | [10] 92 % of control

CC(=O)OC1CC2C(=O)CC1(C)C2(C)C (stereo unspecified)
inactive: [11] 102 % of control

O=C1CC2CCCCC2c2ccccc21 (stereo unspecified)
inactive: dose: 12.5 mg/kg/injection, schedule: Q01DX001 (ip), vehicle: saline 114 % of control | dose: 25.0 mg/kg/injection, schedule: Q01DX001 (ip), vehicle: saline 102 % of control | dose: 50.0 mg/kg/injection, schedule: Q01DX001 (ip), vehicle: saline 100 % of control

CC(=O)N(O)c1ccc(-c2cc3ccccc3[nH]2)cc1
inactive: [12] 101 % of control | [13] 93 % of control | [14] 93 % of control

O=C1C(Cl)=C(NCCCCCCNC2=C(Cl)C(=O)c3ccccc3C2=O)C(=O)c2ccccc21
inactive: [1] 106 % of control

CCOC(=O)C1CC2C=CC1C2 (stereo unspecified)
inactive: [5] 106 % of control | [15] 111 % of control | [6] 101 % of control | [16] 100 % of control | [7] 103 % of control | dose: 400.0 mg/kg/injection, schedule: Q04DX003 (ip), vehicle: Klucel (hydroxypropylcellulose) (HPC) 105 % of control

CC(C)CNNCC(C)C
inactive: dose: 75.0 mg/kg/injection, schedule: Q01DX001 (ip), vehicle: other 103 % of control

O=C(Nc1ccc(Cl)cc1)Nc1ccccc1F
inactive: [9] 91 % of control | [10] 89 % of control

CN(C)/C=N/N1CCN(C)CC1
inactive: [4] 115 % of control | dose: 200.0 mg/kg/injection, schedule: Q04DX002 (ip), vehicle: saline 101 % of control | dose: 400.0 mg/kg/injection, schedule: Q04DX002 (ip), vehicle: saline 97 % of control

CCOC(OCC)c1c(Cl)cccc1Cl
inactive: [17] 98 % of control | [8] 99 % of control | [18] 88 % of control | [9] 93 % of control | [19] 101 % of control | [10] 93 % of control

CC(=O)Nc1nn[nH]n1
inactive: dose: 100.0 mg/kg/injection, schedule: Q01DX001 (ip), vehicle: other 93 % of control | [5] 90 % of control | [8] 94 % of control | dose: 200.0 mg/kg/injection, schedule: Q01DX001 (ip), vehicle: other 96 % of control | [6] 91 % of control | [9] 94 % of control | dose: 400.0 mg/kg/injection, schedule: Q01DX001 (ip), vehicle: other 96 % of control | [10] 90 % of control

COc1ccccc1N=Nc1ccc(O)c(C(=O)O)c1
inactive: [15] 102 % of control | [16] 103 % of control

NC(CC(O)C(=O)O)C(=O)O (stereo unspecified)
inactive: dose: 12.5 mg/kg/injection, schedule: Q04DX002 (ip), vehicle: saline 95 % of control | [2] 106 % of control and 96 % of control | [3] 106 % of control and 96 % of control | [20] 93 % of control | [4] 101 % of control | [21] 97 % of control | [22] 87 % of control

CCCCC(C)(O)c1cc(OC)cc(OC)c1 (stereo unspecified)
inactive: [20] 104 % of control | [21] 97 % of control | [22] 87 % of control

COc1ccc2c(c1O)C13C=C(C)C(=O)CC1C(C2)N(C)CC3 (stereo unspecified)
inactive: [11] 106 % of control

COC(=O)C[N+]1(C)C2CCC1CC(Cl)C2 (stereo unspecified)
inactive: [1] 101 % of control

O=S(=O)(Sc1ccc(N(CCCl)CCCl)cc1)c1ccc(N(CCCl)CCCl)cc1
inactive: dose: 50.0 mg/kg/injection, schedule: Q01DX001 (ip), vehicle: carboxymethylcellulose (CMC) 109 % of control | [12] 100 % of control | [13] 117 % of control | [14] 109 % of control

FC(F)(F)/C([S-])=C(/[S-])C(F)(F)F.FC(F)(F)/C([S-])=C(/[S-])C(F)(F)F.FC(F)(F)/C([S-])=C(/[S-])C(F)(F)F.FC(F)(F)/C([S-])=C(/[S-])C(F)(F)F.[Co+3].[Co+3]
inactive: dose: 12.5 mg/kg/injection, schedule: Q01DX009 (ip), vehicle: other 113 % of control | dose: 25.0 mg/kg/injection, schedule: Q01DX009 (ip), vehicle: other 104 % of control

CCC(=O)Nc1ccc(Cl)cc1OC
inactive: [5] 100 % of control | [6] 102 % of control | [7] 100 % of control

CN(Cc1ccccc1)C(=O)NC(C)(C)C
inactive: [23] 121 % of control | [24] 102 % of control | [25] 105 % of control

Nc1nc(-c2ccccc2)cs1
inactive: dose: 25.0 mg/kg/injection, schedule: Q01DX009 (ip), vehicle: saline with Tween-80 106 % of control | dose: 25.0 mg/kg/injection, schedule: Q04DX003 (ip), vehicle: saline with Tween-80 100 % of control | dose: 50.0 mg/kg/injection, schedule: Q01DX009 (ip), vehicle: saline with Tween-80 108 % of control | dose: 50.0 mg/kg/injection, schedule: Q04DX003 (ip), vehicle: saline with Tween-80 92 % of control | [17] 106 % of control | [8] 92 % of control

CCC/C(=N/NC(=O)CNC(=O)c1ccccc1)c1ccccc1
inactive: [17] 100 % of control | [18] 96 % of control | [19] 92 % of control

O=C(NCc1cccc2ccccc12)Nc1ccccc1Cl
inactive: [23] 100 % of control | [24] 104 % of control | [25] 96 % of control
